How the values were obtained:
[1] = target: T1, Recombinant full-length human IDO1 (Homo sapiens, UniProt P14902); assay: IDO1 enzymatic assay (NFK quantified by LCMS); format: biochemical; details: 2 nM enzyme, 5 μM L-tryptophan, pH6.5, 30 minutes pre-incubation at RT; mean values when measured multiple times; read-out: hIDO activity (IC50 in nM)
T1 construct: Recombinant full-length human IDO1 with a N-terminal hexahistidine tag; hexahistidine (His6) (N); made in house; host or cells: E. coli
Outline: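 His-tagged human IDO1 (2 nM) in pH 6.5 phosphate buffer with ascorbate, methylene blue and catalase was preincubated with compound (10 μM–0.5 nM, 0.6% DMSO) for 30 min at RT. The reaction then ran with 5 μM L-Trp for 30 min. NFK was measured by LCMS against a d5-Trp standard, and IC50 was obtained by four-parameter fit.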

[2] = target: T2, Recombinant human TDO comprising amino acids 19-407 (Homo sapiens, UniProt P48775); assay: TDO2 enzymatic assay (NFK quantified by LCMS); format: biochemical; details: 15 nM enzyme, 200 μM L-tryptophan, pH7, 30 minutes pre-incubation at RT; mean values when measured multiple times; read-out: hTDO activity (IC50 in nM)
T2 construct: Recombinant human TDO comprising amino acids 19-407 with a N-terminal hexahistidine tag; hexahistidine (His6) (N); made in house; host or cells: E. coli
T2 sequence (P48775 19-406 limits assumed): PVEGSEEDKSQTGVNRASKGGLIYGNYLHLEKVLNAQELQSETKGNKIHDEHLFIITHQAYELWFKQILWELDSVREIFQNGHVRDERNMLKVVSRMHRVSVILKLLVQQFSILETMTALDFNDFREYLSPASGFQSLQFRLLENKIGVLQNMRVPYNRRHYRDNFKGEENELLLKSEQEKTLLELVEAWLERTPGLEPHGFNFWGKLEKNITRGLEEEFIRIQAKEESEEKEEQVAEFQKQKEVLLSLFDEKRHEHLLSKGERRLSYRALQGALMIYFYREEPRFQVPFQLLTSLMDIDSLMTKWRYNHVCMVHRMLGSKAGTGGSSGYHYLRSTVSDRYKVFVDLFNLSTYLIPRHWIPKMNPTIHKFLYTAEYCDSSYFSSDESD
Outline: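 NFK formed over 30 min at RT from 200 μM L-tryptophan was measured by LCMS, normalized to d5-tryptophan, after compound (0.5 nM–10 μM, duplicates, 0.6% DMSO) was preincubated 30 min with 15 nM recombinant His-tagged TDO 19-407 in phosphate buffer pH 7. IC50 from four-parameter logistic fit; repeats averaged.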

T1 sequence (P14902 whole entry): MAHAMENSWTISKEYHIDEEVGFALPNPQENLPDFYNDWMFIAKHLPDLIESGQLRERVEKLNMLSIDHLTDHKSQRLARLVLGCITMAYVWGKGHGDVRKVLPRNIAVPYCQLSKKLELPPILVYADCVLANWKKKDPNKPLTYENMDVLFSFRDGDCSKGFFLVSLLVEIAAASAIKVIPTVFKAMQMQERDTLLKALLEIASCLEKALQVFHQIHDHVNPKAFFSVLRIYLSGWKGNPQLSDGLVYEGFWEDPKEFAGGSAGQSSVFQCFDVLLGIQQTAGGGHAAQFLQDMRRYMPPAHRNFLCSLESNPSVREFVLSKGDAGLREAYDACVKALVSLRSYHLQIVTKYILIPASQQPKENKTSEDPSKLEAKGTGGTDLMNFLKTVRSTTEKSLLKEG

Row | IC50 [1] | IC50 [2] | Structure (SMILES)
1 | 37.1 nM | > 10200 nM | CCc1sc2cncn2c1C(O)c1cn(-c2cccc(C#N)c2)nn1 (racemic) [Example 51, rac-3-{4-[(2-Ethyl-imidazo[5,1-b]thiazol-3-yl)-hydroxy-methyl]-[1,2,3]triazol-1-yl}-benzonitrile]
2 | 17.5 nM | > 10200 nM | COc1ccc(-n2cc(C(O)c3c(C(C)(F)F)sc4cncn34)nn2)cc1 (racemic) [Example 257, rac-[2-(1,1-Difluoro-ethyl)-imidazo[5,1-b]thiazol-3-yl]-[1-(4-methoxy-phenyl)-1H-[1,2,3]triazol-4-yl]-methanol]
3 | 466 nM | 5440 nM | OC(c1cnn(-c2ccccc2)n1)c1c(C2CC2)sc2cncn12 (racemic) [Example 158, rac-(2-Cyclopropyl-imidazo[5,1-b]thiazol-3-yl)-(2-phenyl-2H-[1,2,3]triazol-4-yl)-methanol]
4 | 2.6 nM | 4710 nM | O=[N+]([O-])c1cc(-n2cc(C(O)c3c(C4CC4)sc4cncn34)nn2)ccc1O (racemic) [Example 248, rac-4-{4-[(2-Cyclopropyl-imidazo[5,1-b]thiazol-3-yl)-hydroxy-methyl]-[1,2,3]triazol-1-yl}-2-nitro-phenol]
5 | 210 nM | > 10200 nM | CC(C)(O)CCOc1ccc(-n2cc(C(O)c3c(-c4ccccc4)sc4cncn34)nn2)cc1Cl (racemic) [Example 268, rac-4-(2-Chloro-4-{4-[hydroxy-(2-phenyl-imidazo[5,1-b]thiazol-3-yl)-methyl]-[1,2,3]triazol-1-yl}-phenoxy)-2-methyl-butan-2-ol]
6 | 44.2 nM | > 10200 nM | CC(C)Oc1ccc(-n2cc(C(O)c3c(C4CC4)sc4cncn34)nn2)cn1 (racemic) [Example 82, rac-(2-Cyclopropyl-imidazo[5,1-b]thiazol-3-yl)-[1-(6-isopropoxy-pyridin-3-yl)-1H-[1,2,3]triazol-4-yl]-methanol]
7 | 184 nM | > 10200 nM | OC(c1ccc(-c2ccccc2)cc1)c1c(C2CC2)sc2cncn12 (racemic) [Example 152, rac-Biphenyl-4-yl-(2-cyclopropyl-imidazo[5,1-b]thiazol-3-yl)-methanol]
8 | 90.2 nM | > 10200 nM | Oc1cc(Cl)ccc1-n1cc(C(O)c2c(C3CC3)sc3cncn23)nn1 (racemic) [Example 221, rac-5-Chloro-2-{4-[(2-cyclopropyl-imidazo[5,1-b]thiazol-3-yl)-hydroxy-methyl]-[1,2,3]triazol-1-yl}-phenol]
9 | 4.55 nM | 7180 nM | Oc1cc(F)c(-n2cc(C(O)c3c(C4CC4)sc4cncn34)nn2)cc1F (racemic) [Example 331, rac-4-{4-[(2-Cyclopropyl-imidazo[5,1-b]thiazol-3-yl)-hydroxy-methyl]-[1,2,3]triazol-1-yl}-2,5-difluoro-phenol]
10 | 200 nM | > 10200 nM | COc1ccc(-n2cc(C(O)c3c(C4CC4)sc4cncn34)nn2)nc1OC (racemic) [Example 66, rac-(2-Cyclopropyl-imidazo[5,1-b]thiazol-3-yl)-[1-(5,6-dimethoxy-pyridin-2-yl)-1H-[1,2,3]triazol-4-yl]-methanol]
11 | 28.8 nM | > 10200 nM | Cc1cccc(-n2cc(C(O)c3c(C4CC4)sc4cncn34)nn2)c1 (racemic) [Example 28, rac-(2-Cyclopropyl-imidazo[5,1-b]thiazol-3-yl)-(1-m-tolyl-1H-[1,2,3]triazol-4-yl)-methanol]
12 | 442 nM | > 10200 nM | OC(c1cn(-c2ccc(OCC3CC3)c(Cl)c2)nn1)c1c(-c2ccccc2)sc2cncn12 (racemic) [Example 265, rac-[1-(3-Chloro-4-cyclopropylmethoxy-phenyl)-1H-[1,2,3]triazol-4-yl]-(2-phenyl-imidazo[5,1-b]thiazol-3-yl)-methanol]
13 | 60 nM | 2940 nM | Cn1nccc1-c1ccc(C(O)c2c(C3CC3)sc3cncn23)s1 (racemic) [Example 169, rac-(2-Cyclopropyl-imidazo[5,1-b]thiazol-3-yl)-[5-(2-methyl-2H-pyrazol-3-yl)-thiophen-2-yl]-methanol]
14 | 7.91 nM | 6470 nM | CCc1sc2cncn2c1C(O)c1cn(-c2ccc(OC)cc2)nn1 (racemic) [Example 285, rac-(2-Ethyl-imidazo[5,1-b]thiazol-3-yl)-[1-(4-methoxy-phenyl)-1H-[1,2,3]triazol-4-yl]-methanol]
15 | 16.5 nM | > 10200 nM | OCCOCCOc1ccc(-n2cc(C(O)c3c(C4CC4)sc4cncn34)nn2)cc1 (racemic) [Example 138, rac-2-[2-(4-{4-[(2-Cyclopropyl-imidazo[5,1-b]thiazol-3-yl)-hydroxy-methyl]-[1,2,3]triazol-1-yl}-phenoxy)-ethoxy]-ethanol]
16 | 12.9 nM | > 10200 nM | O=S1(=O)CCC(COc2ccc(-n3cc(C(O)c4c(C5CC5)sc5cncn45)nn3)cc2)CC1 (racemic) [Example 147, rac-(2-Cyclopropyl-imidazo[5,1-b]thiazol-3-yl)-{1-[4-(1,1-dioxo-hexahydro-1I6-thiopyran-4-ylmethoxy)-phenyl]-1H-[1,2,3]triazol-4-yl}-methanol]
17 | 5.3 nM | > 10200 nM | CCOc1ccc(-n2cc(C(O)c3c(C4CC4)sc4cncn34)nn2)cc1 (racemic) [Example 32, rac-(2-Cyclopropyl-imidazo[5,1-b]thiazol-3-yl)-[1-(4-ethoxy-phenyl)-1H-[1,2,3]triazol-4-yl]-methanol]
18 | 24.1 nM | > 10200 nM | OC(c1cn(-c2cccc3cc[nH]c23)nn1)c1c(C2CC2)sc2cncn12 (racemic) [Example 27, rac-(2-Cyclopropyl-imidazo[5,1-b]thiazol-3-yl)-[1-(1H-indol-7-yl)-1H-[1,2,3]triazol-4-yl]-methanol]
19 | 18.1 nM | > 10200 nM | OC(c1cn(-c2ccc3cc[nH]c3c2)nn1)c1c(C2CC2)sc2cncn12 (racemic) [Example 21, rac-(2-Cyclopropyl-imidazo[5,1-b]thiazol-3-yl)-[1-(1H-indol-6-yl)-1H-[1,2,3]triazol-4-yl]-methanol]
20 | 16.9 nM | 9520 nM | COc1ccc(-n2nnc(C(O)c3c(C4CC4)sc4cncn34)c2C)c(C)c1 (racemic) [Example 326, rac-(2-Cyclopropyl-imidazo[5,1-b]thiazol-3-yl)-[1-(4-methoxy-2-methyl-phenyl)-5-methyl-1H-[1,2,3]triazol-4-yl]-methanol]
21 | 95.8 nM | > 10200 nM | OC(c1cn(-c2cccnc2)nn1)c1c(C2CC2)sc2cncn12 (racemic) [Example 15, rac-(2-Cyclopropyl-imidazo[5,1-b]thiazol-3-yl)-(1-pyridin-3-yl-1H-[1,2,3]triazol-4-yl)-methanol]
22 | 199 nM | 2620 nM | Oc1ccc(-n2cc(C(O)c3c(C4CC4)sc4cncn34)nn2)c(OC(F)(F)F)c1 (racemic) [Example 213, rac-4-{4-[(2-Cyclopropyl-imidazo[5,1-b]thiazol-3-yl)-hydroxy-methyl]-[1,2,3]triazol-1-yl}-3-trifluoromethoxy-phenol]
23 | 25.6 nM | 2070 nM | CCCCNC(=O)Nc1ccc(-n2cc(C(O)c3c(CC)sc4cncn34)nn2)cc1 (racemic) [Example 122, rac-1-Butyl-3-(4-{4-[(2-ethyl-imidazo[5,1-b]thiazol-3-yl)-hydroxy-methyl]-[1,2,3]triazol-1-yl}-phenyl)-urea]
24 | 55.8 nM | > 10200 nM | CC(C)(C)OC(=O)Nc1ccc(-n2cc(C(O)c3c(C4CC4)sc4cncn34)nn2)c(F)c1 (racemic) [Example 151, rac-(4-{4-[(2-Cyclopropyl-imidazo[5,1-b]thiazol-3-yl)-hydroxy-methyl]-[1,2,3]triazol-1-yl}-3-fluoro-phenyl)-carbamic Acid Tert-Butyl Ester]
25 | 79.6 nM | > 10200 nM | OC(c1cn(-c2ccccn2)nn1)c1c(C2CC2)sc2cncn12 (racemic) [Example 14, rac-(2-Cyclopropyl-imidazo[5,1-b]thiazol-3-yl)-(1-pyridin-2-yl-1H-[1,2,3]triazol-4-yl)-methanol]
26 | 108 nM | > 10200 nM | OC(c1cn(-c2ccc(OC(F)(F)F)cc2)nn1)c1c(C2CC2)sc2cncn12 (racemic) [Example 31, rac-(2-Cyclopropyl-imidazo[5,1-b]thiazol-3-yl)-[1-(4-trifluoromethoxy-phenyl)-1H-[1,2,3]triazol-4-yl]-methanol]
27 | 4.63 nM | > 10200 nM | O[C@@H](c1cn(-c2ccc(OCC3CCOCC3)c(Cl)c2)nn1)c1c(C2CC2)sc2cncn12 [Example 276, (R)-{1-[3-Chloro-4-(tetrahydro-pyran-4-ylmethoxy)-phenyl]-1H-[1,2,3]triazol-4-yl}-(2-cyclopropyl-imidazo[5,1-b]thiazol-3-yl)-methanol]
28 | 9.03 nM | 7880 nM | OC(c1cn(-c2ccc3[nH]ccc3c2)nn1)c1c(C2CC2)sc2cncn12 (racemic) [Example 16, rac-(2-Cyclopropyl-imidazo[5,1-b]thiazol-3-yl)-[1-(1H-indol-5-yl)-1H-[1,2,3]triazol-4-yl]-methanol]

From patent US20200405696A1, “INHIBITORS OF INDOLEAMINE 2,3-DIOXYGENASE AND/OR TRYPTOPHAN 2,3-DIOXYGENASE” (IDORSIA PHARMACEUTICALS LTD, priority 2018, published 2020)
